The target of assay [1] is LRRK2 wild type enzyme (Homo sapiens, UniProt Q5S007). The assay can be described thus: Biochemical Assay: LRRK2 TR-FRET (LanthaScreen) kinase assay with LRRKtide substrate. The note with it: LRRK2 Inhibition, Table 8. An outline of the steps: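 TR-FRET detection (Tb-labelled phospho-LRRKtide antibody, EDTA stop, 30 min) followed a 120 min, 23 °C reaction of 3 nM wild-type human LRRK2 with LRRKtide (400 nM) and ATP (25 μM) in Tris pH 8.0. Compounds: 11-point 3-fold series from 10 μM, 15 min enzyme preincubation.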

Assay [2] has as its target T1, wild type LRRK2 overexpressed in recombinant HEK-293T cells (Homo sapiens, UniProt Q5S007).
T1 construct: host or cells: HEK293T (transient transfection with pCMV-LRRK2 WT plasmid)
The assay can be described thus: pS935 LRRK2 Cell Assay (HTRF, phospho-LRRK2 Ser935). Format: cell-based. The note with it: LRRK2 Inhibition, Table 8, 2 hours compound incubation. The gist of the method:
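Phospho-Ser935 LRRK2 measured by two-antibody HTRF (Eu-cryptate donor, d2 acceptor; 665/615 nm ratio) after overnight detection at 23° C. Before lysis, transiently LRRK2-transfected HEK-293T cells were exposed 2 h at 37° C to a 9-point, 3-fold series from 10 μM, with DMSO at 0.2%.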
For orientation: TR-FRET usually uses a lanthanide donor and a delayed reading to cut background.

This note sets out measurements from patent publication US20250270209A1 (INTERLINE THERAPEUTICS, INC., priority 2022, published 2025).

Chain of LRRK2 wild type enzyme (Q5S007 whole entry): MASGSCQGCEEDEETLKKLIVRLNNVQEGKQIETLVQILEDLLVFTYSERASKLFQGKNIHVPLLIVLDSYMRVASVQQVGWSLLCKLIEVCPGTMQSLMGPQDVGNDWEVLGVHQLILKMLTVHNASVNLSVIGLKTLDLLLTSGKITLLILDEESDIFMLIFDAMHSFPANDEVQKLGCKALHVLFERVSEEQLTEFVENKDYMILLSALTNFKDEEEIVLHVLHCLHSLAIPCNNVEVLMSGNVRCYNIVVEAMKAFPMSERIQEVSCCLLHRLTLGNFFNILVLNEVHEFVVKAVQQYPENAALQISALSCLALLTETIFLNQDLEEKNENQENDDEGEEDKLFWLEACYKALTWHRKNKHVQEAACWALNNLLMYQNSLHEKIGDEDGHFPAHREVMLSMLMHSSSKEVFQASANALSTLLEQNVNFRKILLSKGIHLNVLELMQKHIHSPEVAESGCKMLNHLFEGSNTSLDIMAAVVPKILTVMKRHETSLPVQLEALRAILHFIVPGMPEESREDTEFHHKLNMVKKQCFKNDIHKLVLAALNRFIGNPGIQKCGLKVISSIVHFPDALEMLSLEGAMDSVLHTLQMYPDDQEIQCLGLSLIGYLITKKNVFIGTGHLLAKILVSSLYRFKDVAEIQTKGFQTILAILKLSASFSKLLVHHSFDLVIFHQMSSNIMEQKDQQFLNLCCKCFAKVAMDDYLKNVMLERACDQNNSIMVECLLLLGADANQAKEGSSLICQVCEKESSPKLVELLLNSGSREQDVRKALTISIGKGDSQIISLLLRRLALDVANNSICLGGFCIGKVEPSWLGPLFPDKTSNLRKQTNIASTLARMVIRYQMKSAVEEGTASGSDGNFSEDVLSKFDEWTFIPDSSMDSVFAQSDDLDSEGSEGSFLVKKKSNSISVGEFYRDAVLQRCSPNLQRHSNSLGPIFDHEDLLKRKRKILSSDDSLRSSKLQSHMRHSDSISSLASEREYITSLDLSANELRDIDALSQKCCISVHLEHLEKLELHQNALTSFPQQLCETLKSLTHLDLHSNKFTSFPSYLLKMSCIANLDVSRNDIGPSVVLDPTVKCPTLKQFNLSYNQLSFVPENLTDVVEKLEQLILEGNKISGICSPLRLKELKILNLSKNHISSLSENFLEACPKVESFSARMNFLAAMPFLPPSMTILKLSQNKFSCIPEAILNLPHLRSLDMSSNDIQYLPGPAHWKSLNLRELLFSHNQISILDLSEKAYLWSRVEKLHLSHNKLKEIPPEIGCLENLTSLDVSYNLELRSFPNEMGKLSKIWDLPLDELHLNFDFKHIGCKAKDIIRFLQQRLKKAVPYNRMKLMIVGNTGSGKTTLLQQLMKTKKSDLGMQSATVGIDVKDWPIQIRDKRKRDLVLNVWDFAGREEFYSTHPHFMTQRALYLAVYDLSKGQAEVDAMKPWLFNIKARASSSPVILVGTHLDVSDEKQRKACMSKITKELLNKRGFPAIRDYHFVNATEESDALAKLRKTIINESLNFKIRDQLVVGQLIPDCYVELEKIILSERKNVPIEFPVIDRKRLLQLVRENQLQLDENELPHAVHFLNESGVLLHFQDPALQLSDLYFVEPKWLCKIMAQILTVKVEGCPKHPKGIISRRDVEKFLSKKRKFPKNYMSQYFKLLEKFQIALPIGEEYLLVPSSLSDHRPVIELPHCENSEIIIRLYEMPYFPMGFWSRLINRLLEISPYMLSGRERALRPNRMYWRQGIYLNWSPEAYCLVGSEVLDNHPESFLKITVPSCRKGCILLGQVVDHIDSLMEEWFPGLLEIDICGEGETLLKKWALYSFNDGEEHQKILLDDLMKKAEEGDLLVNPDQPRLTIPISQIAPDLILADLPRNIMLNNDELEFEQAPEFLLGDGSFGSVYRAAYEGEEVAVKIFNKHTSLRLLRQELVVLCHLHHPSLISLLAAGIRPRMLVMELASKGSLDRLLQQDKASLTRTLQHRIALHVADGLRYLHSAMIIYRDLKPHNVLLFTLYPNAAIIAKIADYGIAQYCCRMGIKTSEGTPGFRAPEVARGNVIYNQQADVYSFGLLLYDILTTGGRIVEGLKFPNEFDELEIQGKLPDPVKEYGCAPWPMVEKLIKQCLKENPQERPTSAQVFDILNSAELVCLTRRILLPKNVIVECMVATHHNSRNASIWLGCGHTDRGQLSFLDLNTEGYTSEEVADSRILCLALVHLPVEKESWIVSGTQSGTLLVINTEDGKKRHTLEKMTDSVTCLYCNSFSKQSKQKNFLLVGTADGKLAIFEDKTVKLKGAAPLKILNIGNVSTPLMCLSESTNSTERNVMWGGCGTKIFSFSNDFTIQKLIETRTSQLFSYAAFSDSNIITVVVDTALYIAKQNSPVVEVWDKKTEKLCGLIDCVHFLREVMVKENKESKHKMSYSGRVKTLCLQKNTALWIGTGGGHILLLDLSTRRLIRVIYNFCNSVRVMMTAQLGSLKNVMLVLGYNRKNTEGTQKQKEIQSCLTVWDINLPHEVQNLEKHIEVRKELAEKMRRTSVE
T1 sequence (Q5S007 whole entry): as above

`C[C@@H]1C[C@H](n2c(CC(=O)Nc3ccnn3C)nc3cnc4ccc(C#N)cc4c32)CCO1` [Compound 169, 2-{8-cyano-1-[(2R,4R)-2-methyloxan-4-yl]-1H-imidazo[4,5-c]quinolin-2-yl}-N-(1-methyl-1H-pyrazol-5-yl)acetamide]: the half-maximal inhibitory concentration (IC50) in assay [1] worked out at 0.319 nM; in assay [2], 14.5 nM.
Turning to `C[C@@H]1C[C@H](n2c([C@H]3CN(c4cnn(C)c4)C(=O)O3)nc3cnc4ccc(C#N)cc4c32)CCO1` [Compound 124, 2-[(5R)-3-(1-methyl-1H-pyrazol-4-yl)-2-oxo-1,3-oxazolidin-5-yl]-1-[(2R,4R)-2-methyloxan-4-yl]-1H-imidazo[4,5-c]quinoline-8-carbonitrile], the IC50 in assay [1] was found to be 0.706 nM; in assay [2] it was 50.9 nM.
As to `C[C@@H]1C[C@H](n2c(CC(=O)NCC3CC3)nc3cnc4ccc(Cl)cc4c32)CCO1` [Compound 107, 2-{8-chloro-1-[(2R,4R)-2-methyloxan-4-yl]-1H-imidazo[4,5-c]quinolin-2-yl}-N-(cyclopropylmethyl)acetamide], the values for the IC50 in assay [1] and in assay [2] were 0.354 nM and 10.9 nM, respectively.
For `C[C@@H]1C[C@H](n2c(CC(N)=O)nc3cnc4ccc(C#N)cc4c32)CCO1` [Compound 16, 2-{8-cyano-1-[(2R,4R)-2-methyloxan-4-yl]-1H-imidazo[4,5-c]quinolin-2-yl}acetamide] the same measures were 1.15 nM and 146 nM.
Consider `C[C@@H]1C[C@H](n2c(CC(=O)NCc3cccnn3)nc3cnc4ccc(Cl)cc4c32)CCO1` [Compound 148, 2-{8-chloro-1-[(2R,4R)-2-methyloxan-4-yl]-1H-imidazo[4,5-c]quinolin-2-yl}-N-[(pyridazin-3-yl)methyl]acetamide], for which the figures for the IC50 in assay [1] and in assay [2] were 0.376 nM and 4.5 nM, respectively.
As to `C[C@@H]1C[C@H](n2c([C@@H]3CCN(S(C)(=O)=O)C3)nc3cnc4ccc(C#N)cc4c32)CCO1` [Compound 38, 2-[(3R)-1-methanesulfonylpyrrolidin-3-yl]-1-[(2R,4R)-2-methyloxan-4-yl]-1H-imidazo[4,5-c]quinoline-8-carbonitrile], the values for the IC50 in assay [1] and in assay [2] were 7.3 nM and 772 nM, respectively.
Turning to `C[C@@H]1C[C@H](n2c(CC(=O)NC3(c4ccccn4)CC3)nc3cnc4ccc(C#N)cc4c32)CCO1` [Compound 363, N-[1-(2-pyridyl)cyclopropyl]{3-[(2R,4R)-2-methyltetrahydro-2H-pyran-4-yl]-12-cyano-3,5,8-triazatricyclo[7.4.0.0^2,6]trideca-1,4,6,8,10,12-hexaen-4-yl}acetamide], the IC50 in assay [1] amounted to 0.533 nM; in assay [2] it was 2.05 nM.
In the case of `C[C@@H]1C[C@H](n2c(CC(=O)NC3(C#N)CC3)nc3cnc4ccc(C#N)cc4c32)CCO1` [Compound 282, N-1-cyanocyclopropyl{3-[(2R,4R)-2-methyltetrahydro-2H-pyran-4-yl]-12-cyano-3,5,8-triazatricyclo[7.4.0.0^2,6]trideca-1,4,6,8,10,12-hexaen-4-yl}acetamide], the IC50 in assay [1] amounted to 0.619 nM; in assay [2] it was 188 nM.
In the case of `CC(=O)N1CC(c2nc3cnc4ccc(C#N)cc4c3n2[C@@H]2CCO[C@H](C)C2)C1` [Compound 63, 2-(1-acetylazetidin-3-yl)-1-[(2R,4R)-2-methyloxan-4-yl]-1H-imidazo[4,5-c]quinoline-8-carbonitrile], the IC50 was found to be 12.4 nM in assay [1] and 1850 nM in assay [2].
In the same order, the values of `COc1ncnc(C)c1NC(=O)Cc1nc2cnc3ccc(C#N)cc3c2n1[C@@H]1CCO[C@H](C)C1` [Compound 204, N-(4-methoxy-6-methyl-5-pyrimidinyl){3-[(2R,4R)-2-methyltetrahydro-2H-pyran-4-yl]-12-cyano-3,5,8-triazatricyclo[7.4.0.0^2,6]trideca-1,4,6,8,10,12-hexaen-4-yl}acetamide] are 0.466 nM and 6.64 nM.
Regarding `C[C@@H]1C[C@H](n2c(CC(=O)Nc3ncccn3)nc3cnc4ccc(Cl)cc4c32)CCO1` [Compound 353, N-2-pyrimidinyl{3-[(2R,4R)-2-methyltetrahydro-2H-pyran-4-yl]-12-chloro-3,5,8-triazatricyclo[7.4.0.0^2,6]trideca-1(9),2(6),4,7,10,12-hexaen-4-yl}acetamide], the IC50 in assay [1] is 0.395 nM; in assay [2], 1.84 nM.
For `C[C@@H]1C[C@H](n2c(CC(=O)Nc3cnccc3O)nc3cnc4ccc(C#N)cc4c32)CCO1` [Compound 208, N-(4-hydroxy-3-pyridyl){3-[(2R,4R)-2-methyltetrahydro-2H-pyran-4-yl]-12-cyano-3,5,8-triazatricyclo[7.4.0.0^2,6]trideca-1,4,6,8,10,12-hexaen-4-yl}acetamide] the same measures were 0.582 nM and 4930 nM.
In the same order, the values of `COc1ncc(NC(=O)Cc2nc3cnc4ccc(C#N)cc4c3n2[C@@H]2CCO[C@H](C)C2)c(C2CC2)n1` [Compound 278, N-(4-cyclopropyl-2-methoxy-5-pyrimidinyl){3-[(2R,4R)-2-methyltetrahydro-2H-pyran-4-yl]-12-cyano-3,5,8-triazatricyclo[7.4.0.0^2,6]trideca-1,4,6,8,10,12-hexaen-4-yl}acetamide] are 0.418 nM and 2 nM.
Take `C[C@@H]1C[C@H](n2c(CC(=O)NCC3CC3)nc3cnc4ccc(C5CC5)cc4c32)CCO1` [Compound 159, 2-{8-cyclopropyl-1-[(2R,4R)-2-methyloxan-4-yl]-1H-imidazo[4,5-c]quinolin-2-yl}-N-(cyclopropylmethyl)acetamide]: the values for the IC50 in assay [1] and in assay [2] were 1.65 nM and 94.1 nM, respectively.
On to `C[C@@H]1C[C@H](n2c(CC(=O)Nc3cncnc3)nc3cnc4ccc(Cl)cc4c32)CCO1` [Compound 331, N-5-pyrimidinyl{3-[(2R,4R)-2-methyltetrahydro-2H-pyran-4-yl]-12-chloro-3,5,8-triazatricyclo[7.4.0.0^2,6]trideca-1(9),2(6),4,7,10,12-hexaen-4-yl}acetamide], for which the values for the IC50 in assay [1] and in assay [2] were 0.608 nM and 5.73 nM, respectively.
Regarding `COc1nn(C)cc1NC(=O)Cc1nc2cnc3ccc(C#N)cc3c2n1[C@@H]1CCO[C@H](C)C1` [Compound 229, N-(3-methoxy-1-methyl-4-pyrazolyl){3-[(2R,4R)-2-methyltetrahydro-2H-pyran-4-yl]-12-cyano-3,5,8-triazatricyclo[7.4.0.0^2,6]trideca-1,4,6,8,10,12-hexaen-4-yl}acetamide], the figures for the IC50 in assay [1] and in assay [2] were 0.316 nM and 6.62 nM, respectively.
As for `C[C@@H]1C[C@H](n2c(CC(=O)Nc3ccc(=O)n(C)c3)nc3cnc4ccc(C#N)cc4c32)CCO1` [Compound 281, N-(1-methyl-6-oxo-1,6-dihydro-3-pyridyl){3-[(2R,4R)-2-methyltetrahydro-2H-pyran-4-yl]-12-cyano-3,5,8-triazatricyclo[7.4.0.0^2,6]trideca-1,4,6,8,10,12-hexaen-4-yl}acetamide], the IC50 in assay [1] stood at 0.394 nM; in assay [2] it was 336 nM.
For `C[C@@H]1C[C@H](n2c(CC(=O)NCCc3ccccn3)nc3cnc4ccc(C#N)cc4c32)CCO1` [Compound 366, N-[2-(2-pyridyl)ethyl]{3-[(2R,4R)-2-methyltetrahydro-2H-pyran-4-yl]-12-cyano-3,5,8-triazatricyclo[7.4.0.0^2,6]trideca-1,4,6,8,10,12-hexaen-4-yl}acetamide] the same measures were 0.587 nM and 28.4 nM.
For `Cc1cc(NC(=O)Cc2nc3cnc4ccc(C#N)cc4c3n2[C@@H]2CCO[C@H](C)C2)c(=O)n(C)n1` [Compound 214, N-(2-methyl-6-methyl-3-oxo-2,3-dihydro-4-pyridazinyl){3-[(2R,4R)-2-methyltetrahydro-2H-pyran-4-yl]-12-cyano-3,5,8-triazatricyclo[7.4.0.0^2,6]trideca-1,4,6,8,10,12-hexaen-4-yl}acetamide] the same measures were 0.294 nM and 10.3 nM.
As for `C[C@@H]1C[C@H](n2c(CNC(=O)c3cnn(C)c3)nc3cnc4ccc(C#N)cc4c32)CCO1` [Compound 20, N-({8-cyano-1-[(2R,4R)-2-methyloxan-4-yl]-1H-imidazo[4,5-c]quinolin-2-yl}methyl)-1-methyl-1H-pyrazole-4-carboxamide], the results for the IC50 in assay [1] and in assay [2] were 1.83 nM and 224 nM, respectively.
As for `C[C@@H]1C[C@H](n2c(C3CC(=O)N(Cc4cccnc4)C3)nc3cnc4ccc(C#N)cc4c32)CCO1` (mixture of isomers) [Compound 57, 1-[(2R,4R)-2-methyloxan-4-yl]-2-[(3RS)-5-oxo-1-[(pyridin-3-yl)methyl]pyrrolidin-3-yl]-1H-imidazo[4,5-c]quinoline-8-carbonitrile], the figures for the IC50 in assay [1] and in assay [2] were 0.958 nM and 216 nM, respectively.
For `C[C@@H]1C[C@H](n2c(CC(=O)Nc3cncnc3)nc3cnc4ccc(C#N)cc4c32)CCO1` [Compound 322, N-5-pyrimidinyl{3-[(2R,4R)-2-methyltetrahydro-2H-pyran-4-yl]-12-cyano-3,5,8-triazatricyclo[7.4.0.0^2,6]trideca-1(9),2(6),4,7,10,12-hexaen-4-yl}acetamide] the same measures were 1.08 nM and 32.2 nM.
In the same order, the values of `Cc1cc(C)c(NC(=O)Cc2nc3cnc4ccc(C#N)cc4c3n2[C@@H]2CCO[C@H](C)C2)cn1` [Compound 236, N-(4,6-dimethyl-3-pyridyl){3-[(2R,4R)-2-methyltetrahydro-2H-pyran-4-yl]-12-cyano-3,5,8-triazatricyclo[7.4.0.0^2,6]trideca-1,4,6,8,10,12-hexaen-4-yl}acetamide] are 0.356 nM and 7.37 nM.

The term IC50 denotes the concentration at which inhibition is half-maximal.
